Literature values, collected in US20150202321A1, “COMPOSITIONS COMPRISING CHITOSAN-DRUG CONJUGATES AND METHODS OF MAKING AND USING THE SAME” (NEWGEN BIOPHARMA CORP., priority 2012, published 2015).
Where a name gives a salt, the structure may show the parent alone. Read-outs that look alike come from different tables or passages of the source.

Legend:
[1] = oral
[2] = not given; remark: listed apart in the source

CC(C)c1c(C(=O)Nc2ccccc2)c(-c2ccccc2)c(-c2ccc(F)cc2)n1CC[C@@H](O)C[C@@H](O)CC(=O)O [AT, [R—(R/,R/)]-2-(4-fluorophenyl)-b,d-dihydroxy-5-(1-methylethyl)-3-phenyl-4-[(phenylamino)carbonyl]-1H-pyrrole-1-heptanoic acid, calcium salt (2:1) trihydrate]
systemic availability for HMG-CoA reductase activity [1]: approximately 30%

CC(=O)O[C@@]12CO[C@@H]1C[C@H](O)[C@@]1(C)C(=O)[C@H](O)C3=C(C)[C@@H](OC(=O)[C@H](O)[C@@H](NC(=O)OC(C)(C)C)c4ccccc4)C[C@@](O)([C@@H](OC(=O)c4ccccc4)[C@H]21)C3(C)C [docetaxel]
bioavailability (intravenous administration): 100%
oral bioavailability (co-administered with cyclosporine): 90%±44%
oral bioavailability (on its own): 8%±6%

CC(C)c1nc(N(C)S(C)(=O)=O)nc(-c2ccc(F)cc2)c1/C=C/[C@@H](O)C[C@@H](O)CC(=O)O [rosuvastatin]
AUC following evening or morning drug administration ([2]; evening versus morning): does not differ
absolute bioavailability ([2]; man): approximately 20%
elimination half life ([2]; man): ~19 h
